Data on six molecules can be found in ChEMBL document CHEMBL5303573, “Mapping human microbiome drug metabolism by gut bacteria and their genes” (Nature, 2019).

What all share (type): ADME
Holding throughout (design): dose 2 uM
Holding throughout (details): 2 µM

In data set [1] the target is T1, Endoglucanase E (EGE) (Bacteroides thetaiotaomicron, UniProt Q8AAL9).
T1 sequence (Q8AAL9 whole entry): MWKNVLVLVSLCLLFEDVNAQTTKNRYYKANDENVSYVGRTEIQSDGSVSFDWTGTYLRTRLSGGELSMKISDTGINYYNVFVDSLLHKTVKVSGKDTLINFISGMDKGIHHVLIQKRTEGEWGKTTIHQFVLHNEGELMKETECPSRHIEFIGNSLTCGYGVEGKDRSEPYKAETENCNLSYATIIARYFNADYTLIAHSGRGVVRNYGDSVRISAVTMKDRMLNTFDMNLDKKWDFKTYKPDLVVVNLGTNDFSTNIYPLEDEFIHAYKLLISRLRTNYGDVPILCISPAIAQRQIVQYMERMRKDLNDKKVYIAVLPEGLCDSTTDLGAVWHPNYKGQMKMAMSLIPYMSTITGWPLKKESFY
The data set is described as follows: (§1) The drug is tested on Bacteroides thetaiotaomicron strain: VPI-5482 for biotransformation. The drug concentrations were measured before and after a 12-h incubation by liquid-chromatography-coupled mass spectrometry (LC–MS).

Data set [2] deals with T2, Xylanase (Bacteroides thetaiotaomicron, UniProt Q8A8H5).
T2 sequence (Q8A8H5 whole entry): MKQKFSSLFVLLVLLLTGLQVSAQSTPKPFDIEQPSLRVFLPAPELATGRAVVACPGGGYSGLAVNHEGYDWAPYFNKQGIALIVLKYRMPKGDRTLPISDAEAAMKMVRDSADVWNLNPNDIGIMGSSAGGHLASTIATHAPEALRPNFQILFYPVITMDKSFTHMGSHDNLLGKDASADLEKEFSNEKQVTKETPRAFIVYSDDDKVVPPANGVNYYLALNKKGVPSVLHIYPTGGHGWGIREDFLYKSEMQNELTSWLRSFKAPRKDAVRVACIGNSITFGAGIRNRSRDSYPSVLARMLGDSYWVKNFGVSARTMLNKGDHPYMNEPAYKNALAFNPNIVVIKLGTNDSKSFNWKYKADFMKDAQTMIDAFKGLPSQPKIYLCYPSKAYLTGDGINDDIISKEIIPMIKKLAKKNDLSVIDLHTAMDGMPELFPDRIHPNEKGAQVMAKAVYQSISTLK
The data set is described as §1.

Data set [3] deals with T3, Lipolytic enzyme, G-D-S-L family (Bacteroides thetaiotaomicron, UniProt Q8A0E6).
T3 sequence (Q8A0E6 whole entry): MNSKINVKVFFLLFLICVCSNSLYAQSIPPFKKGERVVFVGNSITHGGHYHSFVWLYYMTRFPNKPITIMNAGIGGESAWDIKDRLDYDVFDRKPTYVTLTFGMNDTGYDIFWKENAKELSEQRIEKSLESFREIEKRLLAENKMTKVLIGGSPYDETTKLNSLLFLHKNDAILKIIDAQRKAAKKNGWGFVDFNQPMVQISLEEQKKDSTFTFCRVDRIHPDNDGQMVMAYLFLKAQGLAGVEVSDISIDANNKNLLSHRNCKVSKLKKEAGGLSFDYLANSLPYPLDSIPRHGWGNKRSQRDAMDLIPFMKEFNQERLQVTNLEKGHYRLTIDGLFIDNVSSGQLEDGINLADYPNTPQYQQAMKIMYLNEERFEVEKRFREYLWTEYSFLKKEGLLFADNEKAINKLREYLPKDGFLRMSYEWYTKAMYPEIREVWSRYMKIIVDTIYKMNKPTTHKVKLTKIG
The description is as §1.

For data set [4], the target named is General stress protein (Bacteroides thetaiotaomicron, UniProt Q8A7U5). The data set is described as §1.
Data set [5] deals with T4, Lipoprotein (Bacteroides thetaiotaomicron, UniProt Q8A343).
T4 sequence (Q8A343 whole entry): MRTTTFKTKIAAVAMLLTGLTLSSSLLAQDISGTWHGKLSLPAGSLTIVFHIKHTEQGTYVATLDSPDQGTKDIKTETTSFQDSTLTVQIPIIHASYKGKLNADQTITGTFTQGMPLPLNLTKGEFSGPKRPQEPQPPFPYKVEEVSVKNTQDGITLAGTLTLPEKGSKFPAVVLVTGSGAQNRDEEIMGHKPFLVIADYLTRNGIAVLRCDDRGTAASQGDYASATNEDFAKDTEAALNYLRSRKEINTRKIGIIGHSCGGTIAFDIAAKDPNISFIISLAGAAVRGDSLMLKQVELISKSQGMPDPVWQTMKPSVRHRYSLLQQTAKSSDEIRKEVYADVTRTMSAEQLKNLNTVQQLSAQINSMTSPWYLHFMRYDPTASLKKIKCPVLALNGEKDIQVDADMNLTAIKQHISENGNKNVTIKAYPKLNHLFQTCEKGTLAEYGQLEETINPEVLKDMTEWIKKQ
Described as §1.

For data set [6], the target named is T5, Lipolytic enzyme, G-D-S-L family (Bacteroides thetaiotaomicron, UniProt Q8A0C5).
T5 sequence (Q8A0C5 whole entry): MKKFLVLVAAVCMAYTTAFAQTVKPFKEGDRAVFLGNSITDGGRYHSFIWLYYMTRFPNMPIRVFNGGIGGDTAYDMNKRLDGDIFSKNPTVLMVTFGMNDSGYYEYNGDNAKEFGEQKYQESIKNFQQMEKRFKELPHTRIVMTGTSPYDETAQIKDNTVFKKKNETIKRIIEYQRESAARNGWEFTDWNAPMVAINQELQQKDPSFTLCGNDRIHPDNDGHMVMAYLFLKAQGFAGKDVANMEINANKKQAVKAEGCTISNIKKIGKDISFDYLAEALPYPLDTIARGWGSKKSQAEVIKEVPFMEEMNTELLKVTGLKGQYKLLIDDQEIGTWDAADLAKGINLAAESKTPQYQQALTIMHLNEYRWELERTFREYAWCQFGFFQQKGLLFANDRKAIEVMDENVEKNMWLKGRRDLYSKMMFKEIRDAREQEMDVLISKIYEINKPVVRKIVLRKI
The data set is described as §1.

In data set [7] the target is T6, 3-oxo-5-alpha-steroid 4-dehydrogenase (Bacteroides thetaiotaomicron, UniProt Q8A618).
T6 sequence (Q8A618 whole entry): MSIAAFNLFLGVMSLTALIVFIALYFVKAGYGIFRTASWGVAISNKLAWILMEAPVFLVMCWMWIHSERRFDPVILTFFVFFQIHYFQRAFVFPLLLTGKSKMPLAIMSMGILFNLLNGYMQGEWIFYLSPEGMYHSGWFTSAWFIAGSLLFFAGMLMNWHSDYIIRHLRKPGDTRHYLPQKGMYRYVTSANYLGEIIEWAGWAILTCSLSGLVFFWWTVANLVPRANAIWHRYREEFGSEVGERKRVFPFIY
The description is as §1.

Data set [8] deals with T7, Acylhydrolase (Bacteroides thetaiotaomicron, UniProt Q8AA96).
T7 sequence (Q8AA96 whole entry): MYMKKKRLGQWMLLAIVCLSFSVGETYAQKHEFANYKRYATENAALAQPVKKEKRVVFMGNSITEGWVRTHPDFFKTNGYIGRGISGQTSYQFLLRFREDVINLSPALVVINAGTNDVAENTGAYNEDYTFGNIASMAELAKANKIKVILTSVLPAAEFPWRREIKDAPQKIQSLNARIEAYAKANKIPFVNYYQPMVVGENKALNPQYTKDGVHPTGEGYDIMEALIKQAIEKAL
The data set is described as §1.

Sequence of General stress protein (Q8A7U5 1-138, change not shown): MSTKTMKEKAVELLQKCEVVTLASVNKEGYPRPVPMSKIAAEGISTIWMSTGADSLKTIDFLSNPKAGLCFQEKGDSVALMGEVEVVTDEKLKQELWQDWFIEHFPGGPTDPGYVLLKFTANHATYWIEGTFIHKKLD

For `C#C[C@]1(O)CC[C@H]2[C@@H]3CCC4=CC(=O)CC[C@@H]4[C@H]3CC[C@@]21CC` [LEVONORGESTREL], the “Bacterial Biotransformation” value in data set [1], in data set [2], in data set [3], in data set [4], in data set [5] and in data set [6] was “Compound NOT metabolized” each time. Further, the “Bacterial Biotransformation” value in data set [7] is “Compound metabolized”; in data set [8], “Compound NOT metabolized”.
Regarding `CC(=O)OCC(=O)[C@@]1(OC(C)=O)[C@@H](C)C[C@H]2[C@@H]3C[C@H](F)C4=CC(=O)C=C[C@]4(C)[C@@]3(F)[C@@H](O)C[C@@]21C` [DIFLORASONE DIACETATE], the “Bacterial Biotransformation” value in data set [1] is “Compound NOT metabolized”; in data set [2], “Compound NOT metabolized”; in data set [3] it was “Compound NOT metabolized”; in data set [4], “Compound NOT metabolized”; in data set [5] it was “Compound NOT metabolized”; in data set [6], “Compound metabolized”. Further, the “Bacterial Biotransformation” value is “Compound NOT metabolized” in data set [7] and “Compound metabolized” in data set [8].
`N#Cc1ccc2c(c1)N(CCCN1CCC(O)CC1)c1ccccc1S2` [PERICIAZINE]: the “Bacterial Biotransformation” value in data set [1], in data set [2], in data set [3], in data set [4], in data set [5] and in data set [6] was “Compound NOT metabolized” throughout. The “Bacterial Biotransformation” value in data set [7] and in data set [8] was “Compound NOT metabolized” throughout.
Regarding `CC(=O)OCC(CCn1cnc2cnc(N)nc21)COC(C)=O` [FAMCICLOVIR], the “Bacterial Biotransformation” value is on record as “Compound NOT metabolized” in data set [1]; “Compound NOT metabolized” in data set [2]; “Compound NOT metabolized” in data set [3]; “Compound NOT metabolized” in data set [4]; “Compound NOT metabolized” in data set [5]; “Compound metabolized” in data set [6]. In addition, the “Bacterial Biotransformation” value in data set [7] is reported as “Compound NOT metabolized”; in data set [8], “Compound metabolized”.
`COc1ccc([C@@H]2Sc3ccccc3N(CCN(C)C)C(=O)[C@@H]2OC(C)=O)cc1` [DILTIAZEM]: the “Bacterial Biotransformation” value in data set [1] is reported as “Compound NOT metabolized”; in data set [2] it was “Compound NOT metabolized”; in data set [3], “Compound NOT metabolized”; in data set [4], “Compound NOT metabolized”; in data set [5], “Compound NOT metabolized”; in data set [6], “Compound metabolized”. Also, the “Bacterial Biotransformation” value in data set [7] and in data set [8] was “Compound NOT metabolized” throughout.
`C#C[C@]1(OC(C)=O)CC[C@H]2[C@@H]3CCC4=CC(=O)CC[C@@H]4[C@H]3CC[C@@]21C` [NORETHINDRONE ACETATE]: the “Bacterial Biotransformation” value in data set [1], in data set [2], in data set [3], in data set [4], in data set [5] and in data set [6] was “Compound NOT metabolized” in each case. Besides, the figures for the “Bacterial Biotransformation” value in data set [7] and in data set [8] were “Compound metabolized” and “Compound NOT metabolized”, respectively.
